Reference: patent publication US20150265621A1, “Treating Bronchiectasis With Doxofylline and Erdosteine” (Alitair Pharmaceuticals, Inc., priority 2014, published 2015)
Read-outs that look alike come from different tables or passages of the source.

How the values were obtained:
chronic asthma subjects = conditions: randomized clinical study; cited from earlier work
[1] = test system: patients with theophylline overdose; conditions: cited from earlier work
CF patients = conditions: intravenous; cited from earlier work
[2] = test system: adults with CT scan confirmed bronchiectasis; conditions: nebulized, vs placebo, cited from earlier work
[3] = test system: bronchiectasis patients with mucus hypersecretion; assay: Summary (mean, weighted mean) of the three erdosteine bronchiectasis studies; type: in vivo, human; conditions: erdosteine 300 mg BID + PCT
Description: There are three published studies showing effectiveness of erdosteine in the treatment of bronchiectasis: Crisafulli et al (2007), Buquan and Xinke (2011) and Yipin (2012). The three studies have a total of 170 subjects, 85 of whom received standard care consisting of Percussive Chest Therapy (PCT) for up to 15 days. The remaining 85 received PCT plus treatment with erdosteine 300 mg BID for the same length of time. […] FEV1, FVC, PEF, MIP, MEP, PaO2 and PaCO2 measured according to test methods described by Mason et al, 2005. FEV1=forced expiratory volume in one second, measured in liters. FVC=forced vital capacity, total amount air the patient can expel in one breath, measured in liters. PEF=peak expiratory flow, measure in liters per second. MIP=maximum inhalation pressure. MEP=Maximum expiratory pressure. PaO2=partial pressure of oxygen. PaCO2=partial pressure of carbon dioxide. […] Again, the results are similar in terms of order of magnitude and consistent in showing an incremental benefit to adding erdosteine to PCT in bronchiectasis patients. […] The use of erdosteine with PCT produces significant and clinically meaningful changes in the respiratory functioning of patients with bronchiectasis and mucus hypersecretion as compared to PCT alone.

[4] = test system: bronchiectasis patients with mucus hypersecretion; conditions: Crisafulli; erdosteine 300 mg BID + PCT up to 15 days; 15 subjects; cited from earlier work
[5] = test system: bronchiectasis patients with mucus hypersecretion; conditions: Yipin; erdosteine 300 mg BID + PCT up to 15 days; 40 subjects; cited from earlier work
[6] = test system: bronchiectasis patients with mucus hypersecretion; conditions: Buquan; erdosteine 300 mg BID + PCT up to 15 days; 30 subjects; cited from earlier work
[7] = test system: bronchiectasis patients with mucus hypersecretion; conditions: cited from earlier work
[8] = weighted by % total subjects (18%, 47%, 35%)

For `Cn1c(=O)c2[nH]cnc2n(C)c1=O` [theophylline], the “subjects dropped out of the study due to side effects” value (chronic asthma subjects) is given as 31%, the “patients treated in an emergency setting for overdose who die” value [1] is given as “Ten” and the “effect on FEV1 and FEF 0.75” value (CF patients) is given as “positive results”.

In the case of `Cn1c(=O)c2c(ncn2CC2OCCO2)n(C)c1=O` [doxofylline], the “effectiveness in treating chronic asthma compared to theophylline” value (chronic asthma subjects) is listed as “as effective as theophylline” and the “subjects dropped out of the study due to side effects” value (chronic asthma subjects) is listed as 11%.

For `NC[C@H]1O[C@H](O[C@H]2[C@H](O)[C@@H](O[C@H]3O[C@H](CO)[C@@H](O)[C@H](N)[C@H]3O)[C@H](N)C[C@@H]2N)[C@H](N)C[C@@H]1O` [tobramycin], the “effect on FEV1” value ([2]; after four weeks of treatment) is listed as “no effect” and the “eradication of P. aeruginosa” value ([2]; four weeks of treatment) is listed as “significant effect”.

With `O=C(O)CSCC(=O)NC1CCSC1=O` (stereo not shown) [Erdo, erdosteine] the “FEV1 change vs baseline, Mean” value ([3]; mean of the three studies) was 0.2 L, the “FVC change vs baseline, Mean” value ([3]; mean of the three studies) was 0.3 L and the “MEP change vs baseline, Mean” value ([3]; mean of the three studies) was 9.3 Kpa. For the same molecule, the “MIP change vs baseline, Mean” value ([3]; mean of the three studies) was 9 kPa, the “PEF change vs baseline, Mean” value ([3]; mean of the three studies) was 0.3 L/s and the “PaCO2 change vs baseline, Mean” value ([3]; mean of the three studies) was 1.3 mm Hg. The “PaO2 change vs baseline, Mean” value ([3]; mean of the three studies) was 5.5 mm Hg, the “FEV1 change vs baseline, Wtd Mean Diff” value [3, 8] was 0.26 L and the “FVC change vs baseline, Wtd Mean Diff” value [3, 8] was 0.36 L. The “MEP change vs baseline, Wtd Mean Diff” value [3, 8] was 9.69 Kpa, the “MIP change vs baseline, Wtd Mean Diff” value [3, 8] was 9.09 kPa and the “PEF change vs baseline, Wtd Mean Diff” value [3, 8] was 0.35 L/s. For the same molecule, the “PaCO2 change vs baseline, Wtd Mean Diff” value [3, 8] was 1.35 mm Hg, the “PaO2 change vs baseline, Wtd Mean Diff” value [3, 8] was 5.70 mm Hg and the “FEV1 change vs baseline” value [4] was 0.2 L. For the same molecule, the “FVC change vs baseline” value [4] was 0.3 L, the “MEP change vs baseline” value [4] was 8.4 Kpa and the “MIP change vs baseline” value [4] was 8.9 kPa. For the same molecule, the “PEF change vs baseline” value [4] was 0.3 L/s, the “PaCO2 change vs baseline” value [4] was 0.1 mm Hg and the “PaO2 change vs baseline” value [4] was 5.1 mm Hg. For the same molecule, the “FEV1 change vs baseline” value [5] was 0.34 L, the “FVC change vs baseline” value [5] was 0.43 L and the “MEP change vs baseline” value [5] was 11.3 Kpa. For the same molecule, the “MIP change vs baseline” value [5] was 9.9 kPa, the “PEF change vs baseline” value [5] was 0.4 L/s and the “PaCO2 change vs baseline” value [5] was 2.6 mm Hg. For the same molecule, the “PaO2 change vs baseline” value [5] was 6.3 mm Hg, the “FEV1 change vs baseline” value [6] was 0.19 L and the “FVC change vs baseline” value [6] was 0.31 L. For the same molecule, the “MEP change vs baseline” value [6] was 8.2 Kpa, the “MIP change vs baseline” value [6] was 8.1 kPa and the “PEF change vs baseline” value [6] was 0.3 L/s. For the same molecule, the “PaCO2 change vs baseline” value [6] was 0.3 mm Hg, the “PaO2 change vs baseline” value [6] was 5.2 mm Hg and the “effect of erdosteine with PCT compared to PCT alone on respiratory functioning” value [7] was “significantly enhances the effect of PCT alone”.
